ChEMBL document CHEMBL1130094, “Structure-activity relationships for a novel series of pyrido[2,3-d]pyrimidine tyrosine kinase inhibitors” (J Med Chem, 1997)

What was measured:
[1] = target: T1, Platelet-derived growth factor receptor (PDGFr) (Rattus norvegicus, UniProt P20786+Q05030); assay: Inhibition of Platelet-derived growth factor receptor (PDGFr) tyrosine kinase in rat aortic vascular smooth muscle cells (RAVSMCs).
[2] = target: T1, Platelet-derived growth factor receptor (PDGFr); assay: Inhibition of platelet derived growth factor (PDGF) stimulated PDGF-receptor autophosphorylation in rat aortic vascular smooth muscle cells (RAVSMCs)
[3] = target: T2, Epidermal growth factor receptor (Homo sapiens, UniProt P00533); assay: Inhibition of Epidermal growth factor receptor (EGFr) tyrosine kinase
Insulin receptor = Insulin receptor (Homo sapiens, UniProt P06213); assay: Inhibition of insulin receptor (InsR) tyrosine kinase
[4] = target: T3, Fibroblast growth factor receptor (Homo sapiens, UniProt P22607+P11362+P22455+P21802); assay: Inhibition of Fibroblast growth factor receptor (FGFr) tyrosine kinase; type: protein assay
[5] = target: Proto-oncogene tyrosine-protein kinase Src (Homo sapiens, UniProt P12931); assay: Inhibition of C-src tyrosine kinase
[6] = Inhibition of vascular smooth muscle cell (VSMC) proliferation at day 8; type: functional; settings: Rattus norvegicus, 192 h
[7] = The half life in rat plasma after intravenous administration; type: ADME, organism-based
[8] = target: T3, Fibroblast growth factor receptor; assay: Inhibition of fibroblast growth factor receptor (FGFr) tyrosine kinase; type: protein assay
[9] = target: T2, Epidermal growth factor receptor; assay: Inhibition of epidermal growth factor receptor (EGFr) tyrosine kinase

Chain of Proto-oncogene tyrosine-protein kinase Src (P12931 2-536 limits assumed): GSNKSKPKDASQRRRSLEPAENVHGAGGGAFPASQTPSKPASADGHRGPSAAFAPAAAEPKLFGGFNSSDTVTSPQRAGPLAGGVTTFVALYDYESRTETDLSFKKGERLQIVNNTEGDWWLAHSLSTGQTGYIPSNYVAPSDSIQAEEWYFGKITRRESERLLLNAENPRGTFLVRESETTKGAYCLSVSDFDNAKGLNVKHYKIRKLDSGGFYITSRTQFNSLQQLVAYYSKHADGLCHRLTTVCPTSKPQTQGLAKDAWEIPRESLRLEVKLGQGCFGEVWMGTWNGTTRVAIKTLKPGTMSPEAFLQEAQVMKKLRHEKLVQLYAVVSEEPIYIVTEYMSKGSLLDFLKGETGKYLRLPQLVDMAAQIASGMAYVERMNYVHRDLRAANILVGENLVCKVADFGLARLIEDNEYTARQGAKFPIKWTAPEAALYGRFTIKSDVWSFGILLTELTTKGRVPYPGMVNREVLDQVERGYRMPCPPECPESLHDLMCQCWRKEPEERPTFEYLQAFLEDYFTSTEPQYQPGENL
Chain of Insulin receptor (P06213 28-758 limits assumed): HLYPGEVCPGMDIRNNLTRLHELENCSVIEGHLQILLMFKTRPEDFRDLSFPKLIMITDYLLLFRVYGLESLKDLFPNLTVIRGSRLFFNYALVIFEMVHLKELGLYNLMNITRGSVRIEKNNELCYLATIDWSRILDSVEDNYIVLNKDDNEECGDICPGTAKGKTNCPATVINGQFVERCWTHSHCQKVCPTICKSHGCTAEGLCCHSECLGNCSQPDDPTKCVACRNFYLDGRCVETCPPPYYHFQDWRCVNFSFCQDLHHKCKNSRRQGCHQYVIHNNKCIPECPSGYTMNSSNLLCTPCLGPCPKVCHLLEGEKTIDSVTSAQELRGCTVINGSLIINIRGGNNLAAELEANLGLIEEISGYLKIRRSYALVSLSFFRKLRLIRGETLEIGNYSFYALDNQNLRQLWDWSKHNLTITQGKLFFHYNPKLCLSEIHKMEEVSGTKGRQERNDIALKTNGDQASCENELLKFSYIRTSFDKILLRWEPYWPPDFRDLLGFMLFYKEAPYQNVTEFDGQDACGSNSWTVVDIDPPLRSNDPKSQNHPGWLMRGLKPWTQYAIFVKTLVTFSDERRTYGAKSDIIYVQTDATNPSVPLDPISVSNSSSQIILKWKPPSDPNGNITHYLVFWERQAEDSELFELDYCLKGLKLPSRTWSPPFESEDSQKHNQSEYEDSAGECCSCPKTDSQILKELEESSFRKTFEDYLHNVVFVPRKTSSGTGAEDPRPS
Chain of Insulin receptor (P06213 763-1382 limits assumed): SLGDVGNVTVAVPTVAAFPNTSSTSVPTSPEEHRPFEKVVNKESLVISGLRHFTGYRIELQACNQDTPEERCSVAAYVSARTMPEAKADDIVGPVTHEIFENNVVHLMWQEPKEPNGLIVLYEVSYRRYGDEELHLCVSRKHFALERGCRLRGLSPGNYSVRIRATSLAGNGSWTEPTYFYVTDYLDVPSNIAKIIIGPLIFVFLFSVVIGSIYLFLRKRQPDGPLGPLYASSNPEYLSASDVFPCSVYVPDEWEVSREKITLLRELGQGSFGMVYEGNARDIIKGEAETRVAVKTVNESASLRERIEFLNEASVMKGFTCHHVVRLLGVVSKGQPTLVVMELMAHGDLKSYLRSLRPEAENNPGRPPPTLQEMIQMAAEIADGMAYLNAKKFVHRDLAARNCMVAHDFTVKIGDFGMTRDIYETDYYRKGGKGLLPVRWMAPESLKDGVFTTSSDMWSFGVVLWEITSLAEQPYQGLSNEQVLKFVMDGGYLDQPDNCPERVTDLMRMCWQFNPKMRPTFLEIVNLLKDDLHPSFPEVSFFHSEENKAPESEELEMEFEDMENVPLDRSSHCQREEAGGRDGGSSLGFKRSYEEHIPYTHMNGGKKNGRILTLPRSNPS
T2 sequence (P00533 whole entry): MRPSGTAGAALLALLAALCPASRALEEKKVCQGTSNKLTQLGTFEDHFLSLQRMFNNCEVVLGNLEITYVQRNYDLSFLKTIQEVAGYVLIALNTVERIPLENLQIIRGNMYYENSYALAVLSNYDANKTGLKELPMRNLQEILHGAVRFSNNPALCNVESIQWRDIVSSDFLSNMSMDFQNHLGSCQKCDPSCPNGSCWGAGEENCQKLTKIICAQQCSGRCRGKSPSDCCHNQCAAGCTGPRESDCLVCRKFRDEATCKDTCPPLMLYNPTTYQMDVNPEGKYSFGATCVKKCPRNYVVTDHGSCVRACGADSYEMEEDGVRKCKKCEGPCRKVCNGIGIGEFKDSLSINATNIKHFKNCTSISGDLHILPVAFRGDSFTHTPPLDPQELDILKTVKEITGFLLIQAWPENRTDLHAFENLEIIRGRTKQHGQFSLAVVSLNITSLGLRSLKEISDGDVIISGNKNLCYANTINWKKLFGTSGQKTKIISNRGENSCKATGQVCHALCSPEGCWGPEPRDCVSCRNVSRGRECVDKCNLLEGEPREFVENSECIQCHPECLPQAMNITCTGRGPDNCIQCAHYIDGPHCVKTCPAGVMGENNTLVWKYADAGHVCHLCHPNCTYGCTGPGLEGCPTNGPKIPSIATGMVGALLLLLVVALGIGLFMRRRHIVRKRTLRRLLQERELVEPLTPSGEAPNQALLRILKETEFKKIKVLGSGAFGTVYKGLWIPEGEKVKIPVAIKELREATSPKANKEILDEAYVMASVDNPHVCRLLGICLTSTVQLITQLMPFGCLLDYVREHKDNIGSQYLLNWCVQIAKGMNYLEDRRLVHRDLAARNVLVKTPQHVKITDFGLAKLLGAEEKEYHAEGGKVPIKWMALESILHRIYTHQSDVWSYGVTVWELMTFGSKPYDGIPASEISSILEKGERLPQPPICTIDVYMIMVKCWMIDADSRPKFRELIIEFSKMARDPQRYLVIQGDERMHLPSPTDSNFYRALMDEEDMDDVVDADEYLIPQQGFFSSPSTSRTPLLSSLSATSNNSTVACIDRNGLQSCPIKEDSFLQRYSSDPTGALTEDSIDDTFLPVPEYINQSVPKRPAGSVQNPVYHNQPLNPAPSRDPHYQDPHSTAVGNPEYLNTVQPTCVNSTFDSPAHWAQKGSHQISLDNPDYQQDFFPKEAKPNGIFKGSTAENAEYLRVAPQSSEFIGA

Compound | IC50 [1] [nM] | IC50 [2] [nM] | IC50 [3] [nM] | IC50 (Insulin receptor) [nM] | IC50 [4] [nM] | IC50 [5] [nM] | IC50 [6] [nM] | half-life [7] [h] | IC50 [8] [nM] | IC50 [9] [nM]
CCN(CC)CCCNc1ncc2cc(-c3c(Cl)cccc3Cl)c(NC(=O)NC(C)(C)C)nc2n1 | 660 | 1800 | 6200 | > 50000 | 82 |  |  |  |  | 
COc1cc(OC)cc(-c2cc3cnc(N)nc3nc2NC(=O)NC(C)(C)C)c1 |  |  |  |  | 60 |  |  |  |  | 
CCNC(=O)Nc1nc2nc(NCCCCN(CC)CC)ncc2cc1-c1c(Cl)cccc1Cl | 190 | 250 |  |  |  |  |  |  |  | 
CCNC(=O)Nc1nc2nc(N)ncc2cc1-c1c(Cl)cccc1Cl | 1300 | 3730 | 1360 | > 50000 | 130 |  |  |  |  | 
CCN(CC)CCCCNc1ncc2cc(-c3c(Cl)cccc3Cl)c(NC(=O)NC(C)(C)C)nc2n1 | 310 | 450 |  | > 50000 |  | 44 | 300 |  |  | 
Cc1cc(C)c(C)c(-c2cc3cnc(N)nc3nc2NC(=O)NC(C)(C)C)c1C | > 50000 | > 50000 |  | > 50000 |  | > 50000 |  |  |  | 
Cc1cccc(C)c1-c1cc2cnc(N)nc2nc1NC(=O)NC(C)(C)C |  |  | 610 | > 50000 | 400 |  |  |  |  | 
CN1CCN(CCCNc2ncc3cc(-c4c(Cl)cccc4Cl)c(NC(=O)NC(C)(C)C)nc3n2)CC1 |  |  |  | > 50000 |  |  |  | 2.69 |  | 
CC(C)(C)NC(=O)Nc1nc2nc(N)ncc2cc1-c1c(Cl)cccc1Cl | 1110 | 630 |  | > 50000 | 130 | 220 |  |  |  | 
Cc1cc(C)c(C)c(-c2cc3cnc(NCCCN4CCN(C)CC4)nc3nc2NC(=O)NC(C)(C)C)c1C | > 50000 | 4300 | 7000 | > 50000 | 140 | 2200 |  |  |  | 
CC(C)(C)NC(=O)Nc1nc2nc(N)ncc2cc1-c1ccccc1 | 4670 |  |  | > 50000 |  | > 50000 |  |  | 3710 | 5530
